Results reported in publication PMC10759609, “A novel PDPN antagonist peptide CY12-RP2 inhibits melanoma growth via Wnt/β-catenin and modulates the immune cells” (Journal of Experimental & Clinical Cancer Research : CR, 2024).
Peptide text beside a SMILES is read from it.

Columns and labels:
A875 cells = test: Annexin V/PI flow cytometry apoptosis, A875; format: cell-based; details: 0, 50, 100, 200 μM, 48 h
Method: In this study, cell apoptosis was analyzed by flow cytometry using a PI/FITC-Annexin V Apoptosis Detection Kit (4A Biotech, Beijing, China). Briefly, melanoma cells were collected and washed with pre-chilled PBS, then resuspended with Annexin V staining buffer. Afterward, fluorescein isothiocyanate (FITC)-Annexin V and PI were stained for 5 min at RT, and then immediately detected using a Beckman flow cytometer. To investigate immune cell infiltration of the lung and spleen in the pulmonary metastasis mouse model, the surface and nuclear antigen staining were performed following the experimental procedure. Fluorescence-labeled mAb against CD3, CD25, CD49b, GranzymeB, CD11b, CD86, and CD206 were purchased from BioLegend (BioLegend, San Diego, CA), and CD4, CD8, and Foxp3 from Tonbo. […] Finally, the samples were measured using flow cytometry.
Fig. 3 Biopanning of PDPN antagonist peptides. […] B Immunofluorescence staining was performed to quantify the colocalization of CY12-RP2 and PDPN protein in melanoma cell lines (A375, A875). […] D Suppression efficiency of melanoma cells growth by CY12-RP2 was measured by CCK8 assay at various concentrations for 24, 48 or 72 h, respectively. […] G, H The 3D cellular spheres were treated with the set concentrations of CY12-RP2 for 5 days and cell morphology was assessed (G), relative spheroid diameter was measured (H). […]

Ki67 = Ki67 fluorescence staining of xenograft tumors; format: in vivo, BALB/c nude mice; details: A375 xenograft tumors
Method: (§1) Fig. S4: The inhibition of cells metastasis and invasion by CY12-RP2 can be […]
(§2) (A, B) The inhibition of CY12-RP2 on the migration capacity of melanoma cell lines was reversed by SKL2001 (A). Statistical analysis was performed to determine the migrated distance (B). The power field scale bar, 100 μm. (C, D) Effect of CY12-RP2 on the invasive ability of melanoma cell lines were reversed by SKL2001 (C).
(§3) Statistical analysis was performed to count the invaded cells (D). The power field scale bar, 100 μm. (E) Western blot assay was also performed to detect the proteins related to EMT and Wnt/β-catenin signaling pathway, including N-cadherin, Vimentin, snail, Dvl2, Phospho-β-catenin-S675, β-catenin, Phospho-GSK3β-Ser9 and GSK3β by CY12-RP2 with or without SKL2001 (50 μM). Data are presented as mean ± SD. *p < […]
Fig. S5: Effects and toxicity of CY12-RP2 in vivo
(A) TUNEL analysis of apoptosis was conducted on orthotopic xenografts tumor sections using fluorescence staining. The power field scale bar, 100 μm. (B) Fluorescence staining of Ki67 was carried out on orthotopic xenograft tumor sections.
(§4) The power field scale bar, 100 μm. (C) Serum His-CY12-RP2 levels of the orthotopic xenografts mice treated by various dosage of CY12-RP2 were measured by His-ELISA kit. […]
(§5) kit. (E) Serum ALT, AST, TG, and γ-GT levels of the orthotopic xenografts model were measured by ELISA. […]

[1] = In vivo biodistribution (His-ELISA); design: species or system BALB/c nude mice; details: His-CY12-RP2, 25 and 100 mg/kg, tail vein
Method: In vivo biodistribution assay was conducted in BALB/c nude mice with melanoma tumor. Here we prepared 15 female BALB/c mice with subcutaneous melanoma tumor, and divided into three groups with each group of five. Mice were treated with His-CY12-RP2 by tail vein administration at various doses (25 mg/kg and 100 mg/kg). We collected at least 50 μL orbital blood samples by using capillary blood vessels at 6 h, 12 h, 24 h, 36 h, and 48 h, respectively. Five mice were used for the study of in vivo biodistribution of peptide. The organs including heart, liver, spleen, lung and kidney were collected after BALB/c nude mice were sacrificed at 48 h. The biodistribution of CY12-RP2 in blood and organs were measured using an ELISA kit (Shenzhen Ziker Biological Technology, Shenzhen, China) following the kit’s instructions.
as §1, §2, §3
(A) TUNEL analysis of apoptosis was conducted on orthotopic xenografts tumor sections using fluorescence staining. […] (B) Fluorescence staining of Ki67 was carried out on orthotopic xenograft tumor sections.
as §4, §5

PDPN in A875 cells = test: Immunofluorescence binding/co-localization with PDPN, A875; format: cell-based; details: 5 μM, 10 h, 37 ℃
Method: Immunofluorescence analysis was used for antigen localization and quantification. For PDPN immunofluorescence staining, melanoma cells (A375, A875) were seeded in coverslips, cultured for 24 h, and fixed using 4% paraformaldehyde for 15 min at room temperature (RT). The cells were then permeabilized with 0.2% Triton X-100 in PBS for 10 min. Cells were blocked using 1% bovine serum albumin (BSA) in PBS for 30 min at RT, and incubated with the primary antibody overnight at 4 ℃. Afterwards, cells were washed three times with PBS containing 0.01% Triton X-100 for 5 min, and incubated with Alexa Fluor 568–conjugated secondary antibodies at RT for 1 h. Lastly, the nuclei were dyed with 4’,6-diamidino-2-phenylindole (DAPI) for 5 min at RT, and the slides were imaged using a NIKON laser scanning confocal microscope. To further verify the specificity binding ability of CY12-RP2 with PDPN, immunofluorescence was detected for analysis in melanoma cells. Briefly, A375 or A875 cells were incubated with CY12-RP2 at a concentration of 5 μM for 10 h at 37 ℃, and then washed with DMEM to remove the unbound peptide. The anti-PDPN primary antibody was then incubated for 4 h at RT. Further experimental procedures were performed as described above. […]

A375 cells = test: Colony formation, A375; format: cell-based

With `CC(C)C[C@H](NC(=O)[C@H](Cc1ccc(O)cc1)NC(=O)[C@@H](N)[C@@H](C)O)C(=O)N[C@@H](CS)C(=O)N[C@H](C(=O)N[C@@H](C)C(=O)N[C@@H](CS)C(=O)N[C@@H](CC(=O)O)C(=O)N[C@@H](Cc1ccc(O)cc1)C(=O)N[C@H](C(=O)N[C@@H](Cc1c[nH]cn1)C(=O)N[C@@H](Cc1c[nH]cn1)C(=O)O)[C@@H](C)O)[C@@H](C)O` [CY12-RP2] (H-TYLCTACDYTHH-OH; N-terminus and C-terminus assumed) the apoptosis rate (A875 cells) was “milder”, the “level of Ki67” value (Ki67) was “significantly decreased” and the “serum level after peak” value ([1]; serum, 6-48 h) was “moderately decreased progressively with time”. For the same molecule, the “time of peak serum level” value ([1]; serum, sampled 6, 12, 24, 36, 48 h) was 6 h, the organ distribution ([1]; tumor vs heart, liver, spleen, lung, kidney at 48 h) was “significant ability to target tumors compared to other organs” and the “fluorescence and co-localization with PDPN” value (PDPN in A875 cells) was “minimal fluorescence”. The colony formation (A375 cells) was “significantly suppress the colony formation of A375 cells in a dose-dependent manner”.
